Test results as given in PubChem BioAssay (NCI).
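Following 48 hours of exposure in 96-well plates, responses at five concentrations were used to interpolate endpoints linearly. The concentration for 50% growth inhibition is given as GI50. Definition used: TGI = concentration required for complete inhibition of growth.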

Key:
Assay in all cases: NCI-60 cell line screen, 48 h
ACHN renal = system: ACHN renal
CCRF-CEM leukemia = system: CCRF-CEM leukemia
HCT-15 colon = system: HCT-15 colon
HL-60(TB) leukemia = system: HL-60(TB) leukemia
HT29 colon = system: HT29 colon
NCI-H460 lung = system: NCI-H460 lung
SF-295 CNS = system: SF-295 CNS
UACC-257 melanoma = system: UACC-257 melanoma
UO-31 renal = system: UO-31 renal

Row | Structure (SMILES) | GI50 (ACHN renal) | TGI (ACHN renal) | GI50 (CCRF-CEM leukemia) | TGI (CCRF-CEM leukemia) | GI50 (HCT-15 colon) | TGI (HCT-15 colon) | GI50 (HL-60(TB) leukemia) | TGI (HL-60(TB) leukemia) | GI50 (HT29 colon) | TGI (HT29 colon) | GI50 (NCI-H460 lung) | TGI (NCI-H460 lung) | GI50 (SF-295 CNS) | TGI (SF-295 CNS) | TGI (UACC-257 melanoma) | GI50 (UO-31 renal) | TGI (UO-31 renal) | GI50 (UACC-257 melanoma)
1 | Cc1ccc(/C=C2\CN(C(=O)OC(C)(C)C)C/C(=C\c3ccc(C)cc3)C2=O)cc1 | 1.06 µM | > 100 µM | 0.587 µM | > 100 µM | 0.054 µM | > 100 µM | 0.0409 µM | 0.473 µM | 0.46 µM | > 40.7 µM | 0.124 µM | 10.7 µM | 0.0685 µM | > 100 µM | > 100 µM | 1.16 µM | > 100 µM | –
2 | CC(=O)NNc1nc(C)c(C(=O)NNC(=O)C(=O)Nc2ccccc2C#N)s1 | – | > 100 µM | – | > 100 µM | – | > 100 µM | – | > 100 µM | – | > 100 µM | – | > 100 µM | – | > 100 µM | > 100 µM | – | > 100 µM | –
3 | N#CC(C(=O)/C(=N/NC(=O)c1ccccc1O)C(C#N)c1ccc(Cl)cc1)c1ccc(Cl)cc1 (configuration not stated) | – | 29.6 µM | – | > 100 µM | – | 37.7 µM | – | 53.1 µM | – | 24.6 µM | – | 29.7 µM | – | 29.9 µM | 27.7 µM | – | 30.9 µM | –
4 | CNS(=O)(=O)NN(C)S(=O)(=O)c1ccc(F)cc1 | – | > 100 µM | – | > 100 µM | – | > 100 µM | – | > 100 µM | – | > 100 µM | – | > 100 µM | – | > 100 µM | > 100 µM | – | > 100 µM | –
5 | Cc1cccc(NC(=O)CC(=O)N2N=C(N(CCC#N)c3ccc(Cl)cc3)CC2c2ccccc2)c1 (configuration not stated) | – | > 100 µM | – | > 100 µM | – | – | – | > 100 µM | – | > 100 µM | – | > 100 µM | – | > 100 µM | > 100 µM | – | > 100 µM | –
6 | N#C/C(=C1\OC(=O)C(c2ccc(Br)cc2)=C1O)c1ccc(Br)cc1 | – | 29.6 µM | – | 51.1 µM | – | – | – | 44.6 µM | – | 34.5 µM | – | 30.4 µM | – | 32.8 µM | 29.5 µM | – | 28.5 µM | –
7 | C[N+](C)(C)CC(=O)N/N=C(/Cc1nc2c3c(ccc2[nH]c1=O)C(=O)c1ccccc1C3=O)C(=O)Nc1ccc(Cl)c(Cl)c1 | – | > 100 µM | – | > 100 µM | – | – | – | > 100 µM | – | > 100 µM | – | > 100 µM | – | > 100 µM | > 100 µM | – | 47.2 µM | –
8 | C=CCC1([C@H](C)[C@@H](OC(C)=O)c2cc(OC)c(OC)c(OC)c2)C[C@@H](OC)CCC1=O (some centres not stated) | – | 41.4 µM | – | 51.7 µM | – | 40.8 µM | – | 45 µM | – | 38 µM | – | 62.4 µM | – | 39.7 µM | – | – | – | –
9 | CC(=O)NC(CCCNCc1ccccc1)C(=O)NCc1ccccc1 (configuration not stated) | – | > 100 µM | – | > 100 µM | – | > 100 µM | – | – | – | > 100 µM | – | > 100 µM | – | > 100 µM | > 100 µM | – | > 100 µM | –
10 | O=C(O)c1ccc([Se][Se]c2ccc(C(=O)O)cc2)cc1 | – | – | – | – | – | > 100 µM | – | – | – | – | – | 54.9 µM | – | 54.7 µM | – | – | 77.7 µM | –
11 | O=C([O-])c1ccccc1Nc1ccccn1.O=C([O-])c1ccccc1Nc1ccccn1.[Ni+2] | > 100 µM | > 100 µM | > 100 µM | > 100 µM | > 100 µM | > 100 µM | – | – | > 100 µM | > 100 µM | > 100 µM | > 100 µM | > 100 µM | > 100 µM | > 100 µM | 48.9 µM | > 100 µM | > 100 µM
12 | CNC(=O)OCc1nc(SC2CCCCO2)n(C)c1COC(=O)NC (configuration not stated) | – | – | – | > 100 µM | – | > 100 µM | – | > 100 µM | – | > 100 µM | – | > 100 µM | – | > 100 µM | > 100 µM | – | > 100 µM | –
13 | COc1nc(NC2OCC(OC(C)=O)C(OC(C)=O)C2OC(C)=O)c(N=CC=Nc2c(NC3OCC(OC(C)=O)C(OC(C)=O)C3OC(C)=O)nc(OC)n(C)c2=O)c(=O)n1C (configuration not stated) | – | > 100 µM | – | – | – | > 100 µM | – | > 100 µM | – | > 100 µM | – | > 100 µM | – | > 100 µM | > 100 µM | – | > 100 µM | –
14 | COC(=O)CCC(NC(=S)N/N=C(\C)c1nccs1)C(=O)OC (configuration not stated) | – | > 100 µM | – | – | – | > 100 µM | – | 47.5 µM | – | > 100 µM | – | > 100 µM | – | > 100 µM | > 100 µM | – | > 100 µM | –
15 | CC1CCCCc2nc3c(c(=O)n21)CCCC3 (configuration not stated) | – | > 100 µM | – | – | – | > 100 µM | – | – | – | > 100 µM | – | > 100 µM | – | > 100 µM | > 100 µM | – | > 100 µM | –
16 | CC(C)(C)OC(=O)C#CC[C@H]1CCCC1/C=C/C(O)=C1/C(=O)NC(CCCNC(=O)OC(C)(C)C)C1=O (some centres not stated) | – | > 100 µM | – | 88.5 µM | – | – | – | 73.7 µM | – | > 100 µM | – | 61.6 µM | – | > 100 µM | 61.4 µM | – | > 100 µM | –
17 | C=C1C(=O)O[C@H]2[C@H]1[C@H](OC(=O)/C(C)=C\C)CC(=C)[C@@H]1[C@H](O)[C@H]3O[C@@]3(C)[C@@]12O | – | > 100 µM | – | > 100 µM | – | > 100 µM | – | – | – | > 100 µM | – | > 100 µM | – | > 100 µM | – | – | > 100 µM | –
18 | CCCc1[nH]nc(CCC(=O)N(Cc2ccccc2)Cc2ccccc2)c1CC | – | > 100 µM | – | > 100 µM | – | > 100 µM | – | – | – | > 100 µM | – | > 100 µM | – | > 100 µM | > 100 µM | – | > 100 µM | –
